# From patent publication US6200994A, “1,4-Disubstituted cyclohexane derivatives for the treatment of depression” (American Home Products Corp, priority 1999, dated 2001)
# Legend:
# human 5-HT1A receptor = target: T1, human 5-HT1A receptor (Homo sapiens, UniProt P08908); experiment: [3H]8-OH-DPAT binding to human 5-HT1A receptor in CHO cell membranes
# T1 construct: expressed in transfected cells
# T1 sequence (P08908 1-422): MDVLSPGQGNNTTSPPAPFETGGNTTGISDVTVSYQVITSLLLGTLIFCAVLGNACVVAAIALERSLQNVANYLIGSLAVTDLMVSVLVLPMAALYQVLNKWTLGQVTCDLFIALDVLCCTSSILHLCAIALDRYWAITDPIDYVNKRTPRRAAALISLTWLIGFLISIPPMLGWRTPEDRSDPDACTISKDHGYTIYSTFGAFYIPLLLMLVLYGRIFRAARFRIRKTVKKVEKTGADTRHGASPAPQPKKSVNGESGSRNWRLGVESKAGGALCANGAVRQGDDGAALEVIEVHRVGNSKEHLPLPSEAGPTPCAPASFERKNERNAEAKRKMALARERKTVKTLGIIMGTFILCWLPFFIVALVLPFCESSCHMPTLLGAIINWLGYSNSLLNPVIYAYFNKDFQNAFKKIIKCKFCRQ
# Protocol: The PCR cloning of the human 5-HT1A receptor subtype from a human genomic library has been described previously by Chanda et al., Mol. Pharmacol., 43:516 (1993). A stable Chinese hamster ovary cell line expressing the human 5-HT1A receptor subtype (5-HT1A.CHO cells) was employed throughout this study. Cells were maintained in DMEM supplemented with 10% fetal calf serum, non-essential amino acids and penicillin/ streptomycin.
# Cells were grown to 95-100% confluency as a monolayer before membranes were harvested for binding studies. Cells were gently scraped from the culture plates, transferred to centrifuge tubes, and washed twice by centrifugation (2000 rpm for 10 min., 4° C.) in buffer (50 mM Tris; pH 7.5). The resulting pellets were aliquoted and maintained at -80.C. On the day of assay, the cells were thawed on ice, and resuspended in buffer. Studies were conducted using [^3 H]8-OH-DPAT as the radioligand. The binding assay was performed in 96 well microtiter plates in a final total volume of 250 μL of buffer. Comparison experiments were performed by using 7 concentrations of unlabelled drug and a final ligand concentration of 1.5 nM. Non-specific binding was determined in the presence of 10 μM 5HT. Saturation analysis was conducted by using [^3 H]8-OH-DPAT at concentrations ranging from 0.3-30 nM. […]
# serotonin transporter = target: T2, serotonin transporter (Rattus norvegicus, UniProt P31652); experiment: 3H-paroxetine binding, affinity for the serotonin transporter (ST) in frontal cortical membranes; parameters: species or system male Sprague-Dawley rats; settings: 1 h, @ 100 nM
# T2 construct: frontal cortical membranes prepared from male Sprague-Dawley rats; from tissue; host or cells: frontal cortex membranes of male Sprague-Dawley rats
# T2 sequence (P31652 whole entry): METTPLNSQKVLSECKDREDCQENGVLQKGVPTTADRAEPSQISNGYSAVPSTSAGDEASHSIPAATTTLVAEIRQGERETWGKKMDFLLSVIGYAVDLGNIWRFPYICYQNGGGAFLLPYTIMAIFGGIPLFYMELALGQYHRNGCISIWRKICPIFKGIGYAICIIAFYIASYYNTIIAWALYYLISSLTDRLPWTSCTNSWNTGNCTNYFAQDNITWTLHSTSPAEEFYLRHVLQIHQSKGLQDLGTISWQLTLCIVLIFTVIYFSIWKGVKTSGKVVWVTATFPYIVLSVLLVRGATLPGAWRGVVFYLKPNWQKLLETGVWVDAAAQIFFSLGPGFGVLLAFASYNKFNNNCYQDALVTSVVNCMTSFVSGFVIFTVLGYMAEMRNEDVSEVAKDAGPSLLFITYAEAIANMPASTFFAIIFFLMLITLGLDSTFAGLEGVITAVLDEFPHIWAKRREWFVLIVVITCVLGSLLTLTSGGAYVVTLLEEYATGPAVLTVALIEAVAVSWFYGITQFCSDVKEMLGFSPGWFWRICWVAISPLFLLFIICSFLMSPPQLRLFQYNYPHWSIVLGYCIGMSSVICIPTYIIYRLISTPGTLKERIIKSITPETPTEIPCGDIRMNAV
# Protocol: A protocol similar to that used by Cheetham et al., Neuropharmacol., 32:737 (1993) was used to determine the affinity of compounds for the serotonin transporter. Briefly, frontal cortical membranes prepared from male Sprague-Dawley rats were incubated with ^3 H-paroxetine (0.1 nM) for 60 min at 25° C. All tubes also contained either vehicle, test compound (one to eight concentrations), or a saturating concentration of fluoxetine (10 μM) to define […]. All reactions were terminated by the addition of ice cold Tris buffer followed by rapid filtration using a Tom Tech filtration device to separate bound from free ^3 H-paroxetine. Bound radioactivity was quantitated using a Wallac 1205 Beta Plate® counter. Nonlinear regression analysis was used to determine IC50 values which were converted to Ki values using the method set forth in Cheng and Prusoff, Biochem. Pharmacol., 22:3099 (1973) (Ki=IC50/((Radioligand conc.)/(1+KD)).
SMILES,"inhibition at 1 µM (human 5-HT1A receptor; 0.5 h, @ 1000 nM, [3H]8-OH-DPAT)",Ki (human 5-HT1A receptor),inhibition at 0.1 µM (serotonin transporter)
"COc1ccsc1C1=CCN([C@H]2CC[C@@H](c3c[nH]c4ccc(F)cc43)CC2)CC1 [Example 1, 5-Fluoro-3-{(1,4-cis)-4-[4-(3-methoxy-thiophen-2-yl)-3,6-dihydro-2H-pyridin-1-yl]-cyclohexyl}-1H-indole]",48%,–,–
"COc1ccsc1C1=CCN([C@H]2CC[C@H](c3c[nH]c4ccc(F)cc43)CC2)CC1 [Example 2, 5-Fluoro-3-{(1,4-trans)-4-[4-(3-methoxy-thiophen-2-yl)-3,6-dihydro-2H-pyridin-1-yl]-cyclohexyl}-1H-indole]",–,20.4 nM,18%
